In article PMC10689700, “Kaemtakols A–D, highly oxidized pimarane diterpenoids with potent anti-inflammatory activity from Kaempferia takensis” (Natural Products and Bioprospecting, 2023):

Assays:
[1] = tested on: NO production in RAW 264.7 macrophage cells; test: Inhibition of LPS-induced NO production in RAW 264.7 macrophage cells (Griess reaction); assay type: cell-based, murine; conditions: Mus musculus; for IC50: RAW264.7, LPS-triggered RAW 264.7 macrophage cells, read-out: IC50 of inhibiting nitric oxide production; for EC50: RAW264.7 cells, LPS 0.25 μg/mL, 24 h, read-out: EC50, Nitric oxide (LPS-induced NO production)
Protocol: (§1) Inhibition of NO production in LPS-activated murine macrophages (RAW 264.7 cells) The inhibitory assay followed the methods described previously with some modifications. RAW 264.7 cells were seeded at 3 × 10^4 cells/well in a 96-well flat bottom plate and cultured in DMEM high glucose supplemented with 10% FBS, 1% penicillin–streptomycin, and 1% HEPES. The plates were initially incubated at 37 °C for 24 h under 5% CO2 atmosphere. Thereafter, LPS (0.25 μg/mL) in the absence or presence of different concentrations of kaemtakols (100, 10, 1, 0.1, 0.01, and 0.001 μg/mL) were introduced into the culture plate and then incubated further for 24 h under the same condition. Aminoguanidine hydrochloride (iNOS inhibitor) was also added as a positive control. The nitrite accumulation in the media was determined by the Griess reaction. The 75 μL of each culture supernatant was mixed with an equivalent amount of Griess reagent and the resulting mixture was incubated at room temperature for additional 10 min. Then, the absorbance at 546 nm was measured using a multimode microplate reader (ENVISION). The cytotoxicity of kaemtakols against RAW 264.7 was determined by a standard MTT assay.

NF-κB in HaCaT cells = test: Inhibition of cytokine-induced NF-κB nuclear translocation in HaCaT human skin cells (high-content imaging); assay type: cell-based; conditions: cytokine cocktail TNF-α, IL-1β, IL-6, read-out: EC50, HaCaT cell (NF-κB production by cytokine induced inflammation)
Protocol: Assessment of inhibitory effects on NF-κB nuclear translocation in human skin HaCaT cells
The assay followed the methods described previously with some modifications. Human skin cells (HaCaT cells) were seeded at 5 × 10^4 cells/well in a 96-well black flat-bottom plate, using DMEM (Dulbecco’s Modified Eagle Medium) high glucose supplemented with 10% FBS and 1% penicillin–streptomycin. The plates were then incubated at 37 °C for 24 h under 5% CO2 atmosphere. Following the initial incubation, a range of concentrations (100, 50, 25, 12.5, 6.25, 3.125 μM) of kaemtakols were introduced to the cells, and a subsequent 1-h incubation at 37 °C with 5% CO2 was carried out. Afterward, a cytokine cocktail comprising TNF-α (10 ng/mL), IL-1β (10 ng/mL), and IL-6 (10 ng/mL), along with the same concentration range of kaemtakols, was introduced to the culture plates and incubated at 37 °C with 5% CO2 for additional 30 min. Thereafter, the treated cells were fixed with 100% methanol at -20 °C for 10 min. The fixed cells underwent triple washes with DPBS before being exposed to a blocking solution (3% BSA) at room temperature for 60 min. Subsequently, a primary antibody (anti-NF-κB), a Rabbit monoclonal antibody, was introduced into the culture plate at a 1:500 ratio in DPBS and incubated at 4 °C overnight. Afterward, the culture plate was washed with DPBS three times. A secondary antibody (Alexa Fluor 488-conjugated goat anti-rabbit IgG) at a 1:500 ratio in DPBS was added to the culture plate and incubated for 1 h at room temperature in the dark. Simultaneously, Hoechst (at a 1:1,000 ratio in DPBS) was also added to the culture plate. The translocation of NF-κB in cells treated with the cytokine cocktail and kaemtakols was subsequently detected using a high-content imaging system (Operetta). The cell viability was determined by Hoechst DNA staining (Operetta).

[2] = Cytotoxicity against RAW 264.7 cells (MTT assay); assay type: cell-based, murine; conditions: mouse; for viability at 24 h, 10 µM: at 10 μM, read-out: % Cell viability At 10 μM; for viability at 24 h, 100 µM: at 100 μM, read-out: % Cell viability At 100 μM
Protocol: as §1, with “The” for “Inhibition of NO production in LPS-activated murine macrophages (RAW 264.7 cells) The”

Row | Structure (SMILES) | IC50 [1] | EC50 [1] | EC50 (NF-κB in HaCaT cells) | viability at 24 h, 10 µM [2] | viability at 24 h, 100 µM [2]
1 | C=CC1(C)C=C2C3(O)OCC4(C(OC(C)=O)CCC(C)(C)C4C3OC(C)=O)C2(O)CC1 (stereo not drawn) [Compound 1, 7α,9α-dihydroxy-1α,6β-diacetoxy-7β,20-epoxyisopimara-8(14),15-diene] | 104 µM | 104 µM | > 100 µM | 95.7% | 68.5%
2 | C=C[C@]1(C)C=C2[C@](O)(CC1)[C@]13CO[C@@]2(O)[C@@H](OC(C)=O)[C@H]1C(C)(C)CC[C@@H]3O [Compound 2, 1α,7α,9α-trihydroxy-6β-acetoxy-7β,20-epoxyisopimara-8(14),15-diene] | 0.69 µM | 0.69 µM | > 100 µM | 83% | 20.8%
3 | C=C[C@]1(C)C=C2[C@@H](OC(C)=O)[C@@]3(O)OC[C@]4([C@@H]3C(C)(C)CC[C@@H]4O)[C@@]2(O)CC1 [Compound 3, 1α,6α,9α-trihydroxy-7β-acetoxy-6β,20-epoxyisopimara-8(14),15-diene] |  | 29.9 µM | > 100 µM | 92.5% | 97.2%
4 | CC(=O)OC1CCC(C)(C)C(C=O)C12COC(=O)C1=C2C2CC3C1C3(C)C2 (stereo not drawn) [Compound 4, 1α-acetoxy-13β-methyl-6,7-seco-7,20-olide-8,9-tricyclo[3.2.1.0^2,7]octane-isopimara-8-en-6-al] |  | 18.8 µM | > 100 µM | 89.7% | 1.55%
